{
  "source": "patent US20190282632A1",
  "about": "“METHODS AND PRODUCTS FOR MODULATING MICROBIOTA COMPOSITION FOR IMPROVING THE EFFICACY OF A CANCER TREATMENT WITH AN IMMUNE CHECKPOINT BLOCKER” (INSTITUT GUSTAVE ROUSSY, priority 2014, published 2019)",
  "key": {"[1]": {"tested_on": "MCA205 sarcoma", "experiment": "Tumor growth of established MCA205 sarcoma under anti-CTLA4 (9D9) therapy, with antibiotics, gene-deficient hosts, co-administered mAbs or oral bacteria", "details": "for Effect of antibiotic regimen on the antitumor effects of 9D9 Ab against MCA205 sarcomas: SPF mice, antibiotics in drinking water", "quoted_text": "Mice were subcutaneously injected into the right flank with 1×10^6 MCA205-0VA or MC38, or with 0.2×10^6 CT26 tumor cell lines. When tumors reached a size of 25 to 40 mm^2 (day 0), mice were injected intraperitoneally (i.p) with 100 μg of anti-CTLA-4 mAb (clone 9D9) or isotype control (clone MPC11). Mice were injected 5 times at 3-day intervals with 9D9, and tumor size was routinely monitored by means of a caliper. In order to evaluate the synergistic effect of vancomycin and anti-CTLA4, a prophylactic setting was established. […] In experiments using anti-IL-12p40 mAb (clone C17.8, 500 μg per mouse) or anti-Ly6G mAb (clone 1A8, 200 μg per mouse), mAbs (or their isotype controls, clone 2A3 in both cases) were injected i.p. every 2 days starting from day 0 until the final anti-CTLA-4 injection. […] All mAbs for in vivo use were obtained from BioXcell (West Lebanon, N.H., USA), using the recommended isotype control mAbs. The inhibitor of iNOS, NG-monomethyl-L-arginine (L-NMMA; Sigma), was administered in PBS daily to mice i.p. at a dose of 2 mg per mouse from the start of anti-CTLA4 treatment.\nMice were treated with antibiotics 2-3 weeks before tumor implantation and continued on antibiotics until the end of the experiment. A mix of ampicillin (1 mg/ml), streptomycin (5 mg/ml), and colistin (1 mg/ml) (Sigma-Aldrich), or vancomycin alone (0.25 mg/ml), or imipenem alone (0.25 mg/ml), or colistin alone (2.103 U/ml) were added in sterile drinking water. Solutions and bottles were changed 2-3 times a week, or daily for experiments with imipenem. Antibiotic activity was confirmed by macroscopic changes observed at the level of caecum (dilatation) and by cultivating the fecal pellets resuspended in BHI+15% glycerol at 0.1 g/ml on blood agar plates for 48 h at 37° C. with 5% CO2 in aerobic or anaerobic conditions.\nFor inoculation of GF mice or mice treated with broad-spectrum antibiotics, colonization was performed the day following the first anti-CTLA4 injection by oral gavage with 100 μl of suspension containing 1×10^9 bacteria. Efficient colonization was checked by culture of feces 48 h post oral gavage. Bacteroides fragilis, Bacteroides thetaiotaomicron, Bacteroides distasonis, Bacteroides uniformis, Lactobacillus plantarum and Enterococcus hirae were grown on COS agar plates (Biomerieux) for 48 h at 37° C. with 5% CO2 in anaerobic conditions. E. coli and Burkholderia cepacia were grown on COS agar plates for 24 h at 37° C. with 5% CO2 in aerobic conditions. Bacteria were harvested from the agar plates, suspended in sterile PBS, centrifuged and washed once with PBS, then resuspended in sterile PBS at an optical density (600 nm) of 1, which corresponds approximately to 1×10^9 colony-forming units (CFU)/ml. In cases where more than one bacteria was administered, an equal volume of each bacteria suspension was mixed to give a suspension of equal proportion of each type of bacteria, to a total 1×10^9 bacteria/ml. For bacteria reconstitution experiments using mice previously treated with antibiotics, antibiotics treatment was stopped after 2-3 weeks at the first anti-CTLA4 injection, and mice were orally gavaged with 1×10^9 CFU the following day. B. distasonis, B. uniformis, E. hirae, and E. coli isolates used in the experiments were originally isolated from feces or mesenteric lymph nodes of SPF mice treated with anti-CTLA4 and identified as described above. […] LPS-EK and LTA-SA (Invivogen) were administrated by oral gavage, at a dose of 500 μg per mouse."}, "[2]": {"tested_on": "small intestine and colon", "experiment": "Histology and histopathological scoring of gut tissue", "assay_type": "in vivo, mice", "details": "vancomycin-treated tumor bearers", "experimental": "The whole small intestine (duodenum, jejunum and ileum) and the colon were removed, cleaned from feces and fixed in 4% PFA for 1 h. Rehydratation of the tissue was performed in 15% sucrose for 1 h and in 30% sucrose overnight. Small intestines or colons were cut longitudinally, with the resulting ribbons rolled, then embedded in optimum cutting temperature (OCT) compound (Sakura), snap frozen, and longitudinal 6 μm sections were prepared. For histological analysis, longitudinal sections were counterstained with hematoxilin and eosin. For histological quantitative analysis, inflammatory foci, appearance of the submucosa, length of villi, and the thickness of lamina propria were scored for each section by a pathologist."}, "[3]": {"tested_on": "bacterial families and orders in feces", "experiment": "454 pyrosequencing of 16S rRNA gene amplicons of feces from tumor bearers", "quoted_text": "Fecal samples used in this study were collected before or after one injection of anti-CTLA4 (or isotype control) from mice under vancomycin regimen or water, and were kept at −80° C. until further analysis. Library preparation and sequencing were conducted at GATC Biotech AG (Konstanz, Germany)."}, "[4]": {"tested_on": "CD4+CD45RO+ T cells", "experiment": "Recall of human CD4+ T cell responses directed against commensals (IFNγ, IL-10)", "assay_type": "cell-based", "experimental": "(§1) All clinical studies were conducted after informed consent of the patients, following the guidelines of the Declaration of Helsinki. Peripheral blood mononuclear cells (PBMC) were provided by Gustave Roussy (Villejuif, France) and by the Department of Radiation Oncology (New York University, New York, N.Y., USA). Patients were included in the following protocols: LUDWIG: MAGE3 protein—based vaccines (25), Meladex vaccine Phase I trial (26), Mel-Ipi-Rx, NCT01557114 (European Union Drug Regulating Authorities clinical trial EudraCT 2010-020317-93) and a pilot study approved by the Kremlin Bicetre Hospital Ethics Committee (n° SC12-018; ID RCB: 2012-A01496-37). Ipilimumab/radiotherapy abscopal effect trials in MM and NSCLC at NYU (Study code: NCT01689974, Study code: NCT0222173). MM patients at baseline were investigated prior to vaccine injections in the Ludwig and Meladex protocols. For memory T cell responses, blood samples were drawn from patients before and after 3 or 4 cycles of ipilimumab. Pyrosequencing analyses of 16S rRNA of gene amplicons in patients feces pre- and post-injections of ipilimumab (V0, V1, V2) were performed according to n° SC12-018; ID RCB: 2012-A01496-37 pilot study endpoints by GATC Biotech AG (Konstanz, Germany).\nAssessing CD4^+ T cell memory responses. Murine systems. Bone marrow-derived dendritic cells (BM-DCs) were generated from femurs and tibiae of C57BL/6 mice, cultured for 7 days in Iscove's medium (Sigma-Aldrich) with J558 supernatant (final GM-CSF concentration of 40 ng/ml), 10% FCS, 100 IU/ml penicillin/streptomycin, 2 mM L-glutamine, 50 μM 2-mercaptoethanol (Sigma-Aldrich) and split every 3-4 days. At day 7, BM-DCs were infected with the isolated bacterial strains at multiplicity of infection (MOI) of 10 or 50, for 1 h at 37° C. in complete Iscove's medium without antibiotics, onto specific low binding 6 wells plates (Sigma). Cells were then washed with PBS and incubated in complete Iscove's medium supplemented with gentamicin (50 μg/ml) to kill extracellular bacteria. For Burkholderia cepacia, the antibiotic meropenem (2 μg/mL, Astra Zeneca) was required. After 24 h, BM-DCs were cultured together with CD4^+ T cells purified from the spleens of mice that had received 7 days treatment of anti-CTLA4 mAb (i.e 3 anti-CTLA4 mAb injections, as detailed above) in complete RPMI medium. CD4^+ T cells were isolated by depletion of non CD4^+ T cells using a cocktail of biotin-conjugated antibodies against CD8a, CD11b, CD11c, CD19, CD45R (B220), CD49b (DX5), CD105, Anti-MHC-class II, Ter-119 and TCRγ/δ as primary labeling reagent. The cells were then magnetically labeled with Anti-Biotin MicroBeads (Miltenyi Biotec, France). […]"}, "[5]": {"tested_on": "gut microbiome of metastatic melanoma patients", "experiment": "Pyrosequencing of 16S rRNA gene amplicons of patients' feces and clustering into enterotypes A, B, C", "assay_type": "in vivo, human", "experimental": "as §1\nGOLD: Prospective immunomonitoring study of patients with metastatic melanoma receiving four injections of Ipilimumab every three weeks. In addition to peripheral blood sampling for memory T cell responses assessment, feces were collected before each Ipilimumab injection. Feces samples were frozen at −80° C. and sent for 16RNA pyrosequencing analysis at GATC Biotech AG (Konstanz, Germany)."}, "[6]": {"tested_on": "metastatic melanoma", "details": "cited from earlier work; for Durable disease control: after more than 7 years of follow-up, MM"}},
  "note": "Entries after “also recorded” stand apart in the source; their conditions may differ. Where two headings read alike, the source gives them in different places.",
  "data": [
    {"molecule": "CNC(=N)NCCC[C@H](N)C(=O)O", "note": "[L-NMMA, NG-monomethyl-L-arginine]", "values": [
      {"measurement": "9D9 mAb-induced tumoricidal activity upon neutralization of nitric oxide", "setting": "[1]; 2 mg per mouse daily i.p.", "result": "failed to affect; also recorded: did not alter the antitumor effects"}
    ]},
    {"molecule": "lipoteichoic acid", "values": [
      {"measurement": "Restoration of 9D9 mAb-induced antitumor effects lost in ACS-treated mice", "setting": "[1]; oral administration, 500 μg per mouse", "result": "failed to restore"}
    ]},
    {"molecule": "CN[C@H](CC(C)C)C(=O)N[C@H]1C(=O)N[C@@H](CC(N)=O)C(=O)N[C@H]2C(=O)N[C@H]3C(=O)N[C@H](C(=O)N[C@H](C(=O)O)c4cc(O)cc(O)c4-c4cc3ccc4O)[C@H](O)c3ccc(c(Cl)c3)Oc3cc2cc(c3O[C@@H]2O[C@H](CO)[C@@H](O)[C@H](O)[C@H]2O[C@H]2C[C@](C)(N)[C@H](O)[C@H](C)O2)Oc2ccc(cc2Cl)[C@H]1O", "note": "[Vancomycin, vancomycin]", "values": [
      {"measurement": "Histopathological score of colonic mucosae under anti-CTLA4", "setting": "[2]", "result": "worsened the histopathological score"},
      {"measurement": "Depletion of Bacteroidales and Burkholderiales provoked by CTLA4 blockade", "setting": "[3]; vancomycin conditioning", "result": "prevented the depletion; also recorded: prevented the loss"},
      {"measurement": "Representation of Bacteroidales (and Enterobacteriales) at the expense of Clostridiales", "setting": "[3]; vancomycin in drinking water", "result": "overrepresentation"},
      {"measurement": "Effect of antibiotic regimen on the antitumor effects of 9D9 Ab against MCA205 sarcomas", "setting": "[1]", "result": "boosted the antitumor effects; also recorded: augments the tumoricidal effects"},
      {"measurement": "Effect of antibiotic regimen on the antitumor effects of 9D9 Ab against MCA205 sarcomas", "setting": "[1]; listed as vancomycin", "result": "ameliorated the tumor growth reduction"}
    ]},
    {"molecule": "colistin", "values": [
      {"measurement": "Effect of antibiotic regimen on the antitumor effects of 9D9 Ab against MCA205 sarcomas", "setting": "[1]", "result": "compromised the antitumor effects"}
    ]},
    {"molecule": "Ipilimumab", "values": [
      {"measurement": "Decreased commensal-specific Th1 immunity of cancer patients", "setting": "[4]; at least in some cases", "result": "restored"},
      {"measurement": "IL-10 production by T cells responding to Bf, B. thetaiotaomicron and to some extent Burkholderia cepacia", "setting": "[4]; melanoma patients, after at least 2 injections", "result": "inhibited"},
      {"measurement": "IFNγ secretion by T cells responding to Bf and B. thetaiotaomicron", "setting": "[4]; melanoma patients, after at least 2 injections, not E. coli, E. faecalis or irrelevant bacteria", "result": "significantly increased"},
      {"measurement": "B. thetaiotaomicron-specific Tr1 immune responses", "setting": "[4]; paired analyses on 5-12 patients", "result": "decrease"},
      {"measurement": "Proportion of MM patients falling into cluster C during therapy", "setting": "[5]; from 26 before therapy", "result": 39, "unit": "%"},
      {"measurement": "Proportion of MM patients belonging to cluster B during therapy", "setting": "[5]; from 58 before therapy", "result": 39, "unit": "%"},
      {"measurement": "Stools of a B pattern that turned into the C favorable enterotype", "setting": "[5]; paired analysis of feces in 12 cases, 2 out of 7", "result": 29, "unit": "%"},
      {"measurement": "Durable disease control", "setting": "[6]", "result": "about 20%"},
      {"measurement": "Durable disease control", "setting": "[6]; listed as ipilimumab", "result": "approximately 20%"},
      {"measurement": "Immune-related adverse events of grade III-IV", "setting": "[6]; human, in vivo, iv", "result": 20, "unit": "%"},
      {"measurement": "Life threatening immune-related adverse events", "setting": "[6]; human, in vivo", "result": "< 5", "unit": "%"}
    ]}
  ]
}
